# Test results published in patent US20240189279A1, “IMMUNOMODULATORY COMPOSITIONS AND METHODS OF USE THEREOF” (THE TEXAS A&M UNIVERSITY SYSTEM, priority 2022, published 2024).
# Entries after “also recorded” stand apart in the source; their conditions may differ.
# Tests used:
# [1] = system: liver metabolome; test: Liver untargeted metabolomics in WD mice; type: in vivo, mice (male B6 129SF1/J)
# [2] = system: endotoxin-treated murine bone marrow derived macrophages; test: Cytokine expression in endotoxin-treated bone marrow derived macrophages; type: cell-based
# [3] = system: fatty acid metabolism enzymes in liver; test: Liver targeted proteomics of fatty acid metabolism and antioxidant enzymes in WD mice; type: in vivo, mice (male B6 129SF1/J)
# Text: Animal experiments. Male B6 129SF1/J mice at 6 weeks of age were obtained from Jackson Laboratories (Bar Harbor, ME). Mice were acclimatized to the animal facility for one week. At the start of the experiment, mice were randomly divided into four groups (n=10 for each group). Three of the four groups were fed ad libitum a Western diet (WD) with 40% Kcal from fat and containing 0.15% cholesterol (D12079B, Research Diets) and a sugar water (SW) solution (23.1 g/L d-fructose+18.9 g/L d-glucose) as previously described (DIAMOND model (15)). After 8 weeks, the three groups of WD-fed mice were randomly selected for treatment with vehicle (WD group) or low (WD-50 group) or high dose (WD-100 group) of […]. The WD group was fed WD and drank sugar water. The WD-50 and WD-100 groups were fed WD and drank sugar water containing, respectively, 50 or 100 mg […] per kg body weight. The treatments were continued for another 8 weeks. Water bottles containing SW and […] or only SW were changed every other day. A fourth group of mice was fed a low-fat control diet (D12450B, Research Diets) and normal water for 16 weeks (CN group) (FIG. 9A). FIG. 9A presents the study design. Mice belonging to the same treatment group were housed together (5 mice/cage). Mice were maintained on 12:12-h light-dark cycles. All procedures were performed in accordance with Texas A&M University Health Sciences Center Institutional Animal Care and Use Committee guidelines under an approved animal use protocol (AUP #2017-0145). Targeted proteomics. A panel of 15 proteins having differential abundance in the untargeted proteomics data were selected for targeted measurements using product ion scans for representative peptides (Table 7). The relative abundance of a target protein was determined by quantifying the corresponding peptide peak's AUCs in MultiQuant and normalizing the value by the sample protein weight.
# [4] = system: AMPK; test: AMPK Western blot analysis of liver tissue of WD mice; type: in vivo, mice (male B6 129SF1/J); conditions: week 16; dose-dependent, reverses WD-induced downregulation
# Text: Animal experiments. Male B6 129SF1/J mice at 6 weeks of age were obtained from Jackson Laboratories (Bar Harbor, ME). Mice were acclimatized to the animal facility for one week. At the start of the experiment, mice were randomly divided into four groups (n=10 for each group). Three of the four groups were fed ad libitum a Western diet (WD) with 40% Kcal from fat and containing 0.15% cholesterol (D12079B, Research Diets) and a sugar water (SW) solution (23.1 g/L d-fructose+18.9 g/L d-glucose) as previously described (DIAMOND model (15)). After 8 weeks, the three groups of WD-fed mice were randomly selected for treatment with vehicle (WD group) or low (WD-50 group) or high dose (WD-100 group) of […]. The WD group was fed WD and drank sugar water. The WD-50 and WD-100 groups were fed WD and drank sugar water containing, respectively, 50 or 100 mg […] per kg body weight. The treatments were continued for another 8 weeks. Water bottles containing SW and […] or only SW were changed every other day. […] The protein concentration was determined using the BCA protein assay kit (Pierce). […] Proteins were quantified by normalizing the intensity of the protein band of interest to the intensity of the j-actin band in the same lane using the Image Lab software (Bio-Rad, Hercules, CA).
smiles,measurement,setting,value
"O=C([O-])Cc1c[nH]c2ccccc12.[Na+] [I3A, Indole-3-acetate sodium salt]",liver metabolome PLS-DA projection,"[1]; high dose (WD-100) group vs CN and WD, p<0.005 and p<0.0005",only partially overlapped with both CN and the WD group
same,WD-induced changes in 516 significant annotated liver metabolite features (hierarchical clustering),[1]; high dose of I3A,generally reversed these changes
same,liver metabolome PLS-DA projection,"[1]; low dose (WD-50) group vs WD, p=0.26",overlapped completely with the WD group
same,"expression of IL-1, TNF-α, and MCP-1",[2],"dose-dependently downregulate the expression of IL-1, TNF-α, and MCP-1"
same,decrease of Fasn in liver,[3]; I3A treated vs WD,86%
same,abundance of antioxidant enzymes catalase (CatB) and glutathione peroxidase 1 (Gpx1) in liver,"[3]; I3A treatment, WD-50 and WD-100",dose-dependent decrease
same,abundance of acetyl-CoA carboxylase-2 (Acab) in liver,[3]; WD-100 group vs WD,not significantly different
same,abundance of fatty acid synthase (Fasn) in liver,[3]; WD-100 group vs WD,decreased in the WD-100 group compared to the WD group
same,"abundance of mitochondrial β-oxidation enzymes Acadl, Acadm, Acads and Hadh in liver",[3]; WD-100 group vs WD,significantly decreased in the WD-100 group compared to WD
same,"abundance of peroxisomal β-oxidation enzymes Acox1, Acaala and Acaalb in liver",[3]; WD-100 group vs WD,A similar trend was observed
same,abundance of CD36 in liver,"[3]; WD-100 group vs WD, sodium salt","did not affect CD36 abundance; also recorded: decreased, but not significantly"
same,liver AMPK and p-AMPK levels,[4],increased both AMPK as well as p-AMPK
